Experimental data reported in ChEMBL document CHEMBL1136640, “The newly synthesized linoleic acid derivative FR236924 induces a long-lasting facilitation of hippocampal neurotransmission by targeting nicotinic acetylcholine receptors” (2003).

Columns and labels:
[1] = system: Torpedo; assay: Effect on Torpedo nicotinic ACh receptor responses at 10 min determined by measuring percentage of original amplitude
[2] = system: Torpedo; assay: Effect on Torpedo nicotinic ACh receptor responses at 0 min determined by measuring percentage of original amplitude
[3] = system: Rattus norvegicus; assay: Intraperitoneal dose required to facilitate the hippocampal neurotransmission in rat; format: functional, Hippocampus

Row | SMILES | Original amplitude [1] [%] | Original amplitude [2] [%] | Dose [3] [mg/kg]
1 | CCCCCC1CC1CC1CC1CC1CC1CC1CC1CCCC(=O)O (configuration not stated) | 78 | 88 | –
2 | CCCCC/C=C\C/C=C\C/C=C\C/C=C\CCCC(=O)O | 139 | 78 | –
3 | CCCCCC1CC1CC1CC1CCCCCCCC(=O)O (configuration not stated) [FR-236924] | 156 | 122 | 2

More lines, main results first:

Row | Original amplitude [1] [%] | Original amplitude [2] [%] | SMILES | Dose [3] [mg/kg]
4 | 124 | 117 | CCCCCCCCC1CC1CCCCCCCC(=O)O (configuration not stated) | –
5 | 69 | 87 | CCC1CC1CC1CC1CC1CC1CCCCCCCC(=O)O (configuration not stated) | –
6 | 139 | 108 | CCCCCCCC/C=C\CCCCCCCC(=O)O | –
7 | 175 | 72 | CCCCC/C=C\C/C=C\CCCCCCCC(=O)O | –
8 | 272 | 77 | CC/C=C\C/C=C\C/C=C\CCCCCCCC(=O)O | –
